Test results reported in publication PMC11876671, “Investigating blood–brain barrier penetration and neurotoxicity of natural products for central nervous system drug development” (Scientific Reports, 2025).
Where a name gives a salt, the structure may show the parent alone. *1 amine or outer side, *2 acyl side, *3 side chain or, on linkers, in order; H or OH if unused. Where a SMILES comes first, the peptide text is derived from it. Bridges are numbered along the chain shown (N, C = ends). [ ]: non-standard residue; d: D form. The star is where a group is joined. X1 = NC1=N[C@@H]([C@H](N[*:1])C(=O)[*:2])C[C@H](O)N1; ΔAla(Z-3-ureido) = NC(=O)N/C=C(\N)C(=O)O; β3hOrn = NCCC[C@H](N)CC(=O)*; Dap = NC[C@H](N)C(=O)O

Assay: in vitro
Conditions: PAMPA, PAMPA-BBB Pe

SMILES | Papp [×10⁻⁶ cm/s]
COc1cc2c(cc1OC)[C@@H]1Cc3ccc(OC)c(OC)c3CN1CC2 [TETRAHYDROPALMATINE] | 156
COC(=O)c1c(C)cc(O)c(C)c1O [VERAMOSS] | 225
CC[C@]1(O)C[C@H]2CN(CCc3c([nH]c4ccccc34)[C@@](C(=O)OC)(c3cc4c(cc3OC)N(C)[C@H]3[C@@](O)(C(=O)OC)[C@H](OC(C)=O)[C@]5(CC)C=CCN6CC[C@]43[C@@H]65)C2)C1 [V[…]] | 21
COC(=O)[C@@H]1[C@H]2C[C@H]3c4[nH]c5ccccc5c4CCN3C[C@@H]2CC[C@@H]1O [YOHIMBINE] | 42
O=C1C[C@@H]2OCC=C3CN4CC[C@]56c7ccccc7N1[C@H]5[C@H]2[C@H]3C[C@H]46 [[…]] | 13

Same assay, conditions: PAMPA, PAMPA-BBB Pe(10^-6 cm/sec)

SMILES | Papp [×10⁻⁶ cm/s]
Cn1cnc2c1c(=O)[nH]c(=O)n2C [THEOBROMINE] | < 1
Cc1ncc(C[n+]2csc(CCO)c2C)c(N)n1 [THIAMINE MONONITRATE] | < 1
C[n+]1cccc(C(=O)[O-])c1 [TRIGONELLINE] | < 1
O=c1ccc2ccc(O)cc2o1 [UMBELLIFERONE] | < 1
CN[C@H](CC(C)C)C(=O)N[C@H]1C(=O)N[C@@H](CC(N)=O)C(=O)N[C@H]2C(=O)N[C@H]3C(=O)N[C@H](C(=O)N[C@H](C(=O)O)c4cc(O)cc(O)c4-c4cc3ccc4O)[C@H](O)c3ccc(c(Cl)c3)Oc3cc2cc(c3O[C@@H]2O[C@H](CO)[C@@H](O)[C@H](O)[C@H]2O[C@H]2C[C@](C)(N)[C@H](O)[C@H](C)O2)Oc2ccc(cc2Cl)[C@H]1O [VANCOMYCIN HYDROCHLORIDE] | < 1
CC[C@]1(O)C[C@@H]2CN(CCc3c([nH]c4ccccc34)[C@@](C(=O)OC)(c3cc4c(cc3OC)N(C)[C@H]3[C@@](O)(C(=O)OC)[C@H](OC(C)=O)[C@]5(CC)C=CCN6CC[C@]43[C@@H]65)C2)C1 [VINBLASTINE] | 5.7
CN(C)[C@@H]1C(O)=C(C(N)=O)C(=O)[C@@]2(O)C(O)=C3C(=O)c4c(O)ccc(Cl)c4[C@@](C)(O)[C@H]3C[C@@H]12 [[…]] | < 1

Same assay, conditions: PAMPA, PAMPA-BBB Pe(10^-6 cm/sec), Table S3: compounds exhibiting low PAMPA-BBB permeability

SMILES | Papp [×10⁻⁶ cm/s]
COC1=C[C@@H]2[C@@H]3Cc4ccc(OC)c(O)c4[C@]2(CCN3C)CC1=O [SINOMENINE] | 2.2
CC(C)C1=CC2=CC[C@@H]3[C@](C)(CCC[C@@]3(C)C(=O)O)[C@H]2CC1 [SODIUM ABIETATE] | < 1
CC1=C(O)C(=O)OC1C (stereo not drawn) [SOTOLONE] | < 1
O=c1c(O)c(-c2ccc(O[C@@H]3O[C@H](CO)[C@@H](O)[C@H](O)[C@H]3O)c(O)c2)oc2cc(O)cc(O)c12 [SPIRAEOSIDE] | < 1
CO[C@@H]1[C@@H](O[C@@H]2O[C@H](C)[C@@H](O[C@H]3C[C@@](C)(O)[C@@H](O)[C@H](C)O3)[C@H](N(C)C)[C@H]2O)[C@@H](CC=O)C[C@@H](C)[C@@H](O[C@H]2CC[C@H](N(C)C)[C@@H](C)O2)/C=C/C=C/C[C@@H](C)OC(=O)C[C@H]1OC(C)=O [SPIRAMYCIN II] | 7.6
COc1cc(C)c2c(c1C=O)Oc1c(c(C)c(O)c3c1C(O)OC3=O)OC2=O (stereo not drawn) [STICTIC ACID] | < 1
Cc1coc2c1C(=O)C(=O)c1c-2ccc2c(C)cccc12 [TANSHINONE I] | 6.8
CC1=C(O)C(=O)[C@@H]2O[C@@H]2C1=O [TERREIC ACID] | 6.8
O=C(O[C@@H]1Cc2c(O)cc(O)cc2O[C@@H]1c1cc(O)c(=O)c2c(O)c(O)cc([C@H]3Oc4cc(O)cc(O)c4C[C@H]3O)c2c1)c1cc(O)c(O)c(O)c1 [THEAFLAVIN MONOGALLATE] | < 1
O=c1c(O)cc([C@H]2Oc3cc(O)cc(O)c3C[C@H]2O)cc2c([C@H]3Oc4cc(O)cc(O)c4C[C@@H]3O)cc(O)c(O)c12 [THEAFLAVINE] | < 1
CC(=O)Nc1c2sscc-2n(C)c1=O [THIOLUTIN] | < 1
C=C(NC(=O)C(=C)NC(=O)c1csc(C2=N[C@@H]3c4csc(n4)[C@H]4NC(=O)c5csc(n5)[C@H]([C@](C)(O)[C@@H](C)O)NC(=O)[C@H]5CSC(=N5)/C(=C/C)NC(=O)[C@H]([C@@H](C)O)NC(=O)c5csc(n5)[C@]3(CC2)NC(=O)[C@H](C)NC(=O)C(=C)NC(=O)[C@H](C)NC(=O)[C@H]([C@@H](C)CC)N[C@@H]2C=Cc3c([C@H](C)O)cc(nc3[C@H]2O)C(=O)O[C@@H]4C)n1)C(N)=O [THIOSTREPTON] | < 1
O=C(/C=C/c1ccc(O)cc1)OC[C@H]1O[C@@H](Oc2c(-c3ccc(O)cc3)oc3cc(O)cc(O)c3c2=O)[C@H](O)[C@@H](O)[C@@H]1O [TILIROSIDE] | < 1
CCC/C=C/C/C=C/C=C/C=N/NN=O [TRIACSIN C] | 8.1
NCCc1c[nH]c2ccccc12 [TRYPTAMINE HYDROCHLORIDE] | < 1
NCCCS(=O)(=O)O [TR[…]] | 1.7
Nc1ncnc2c1ccn2[C@@H]1O[C@H](CO)[C@@H](O)[C@H]1O [TUBERCIDIN] | 2.1
O=c1ccn([C@@H]2O[C@H](COP(=O)(O)O)[C@@H](O)[C@H]2O)c(=O)[nH]1 [URIDINE PHOSPHATE] | < 1
O=C(O)/C=C/c1c[nH]cn1 [UROCANIC ACID] | < 1

SMILES | Papp [×10⁻⁶ cm/s]
O=c1ccn([C@@H]2O[C@H](COP(=O)(O)OP(=O)(O)O)[C@@H](O)[C@H]2O)c(=O)[nH]1 [Uridine diphosphate disodium] | < 1
COc1cc(C(=O)O)ccc1O [VANILLIC ACID] | < 1
COC(=O)C1=CO[C@@H](O[C@@H]2O[C@H](CO)[C@@H](O)[C@H](O)[C@H]2O)[C@H]2[C@@H]1C(=O)C[C@@H]2C [VERBENALIN] | < 1
NCCC[C@H](N)CC(=O)N[C@H]1CNC(=O)[C@H]([C@H]2C[C@H](O)NC(N)=N2)NC(=O)/C(=C/NC(N)=O)NC(=O)[C@H](CO)NC(=O)[C@H](CO)NC1=O [VIOMYCIN SULFATE] (β3hOrn-[Dap]SS[ΔAla(Z-3-ureido)][X1]; lactam 1-C) | < 1
O=c1cc(-c2ccc(O)cc2)oc2c([C@@H]3O[C@H](CO)[C@@H](O)[C@H](O)[C@H]3O)c(O)cc(O)c12 [VITEXIN] | < 1
N[C@@H](Cn1ccc(=O)[nH]c1=O)C(=O)O [WILLARDIINE] | < 1
CC1=C[C@H](O)CC(C)(C)[C@H]1/C=C/C(C)=C/C=C/C(C)=C/C=C/C=C(C)/C=C/C=C(C)/C=C/C1=C(C)C[C@@H](O)CC1(C)C [XANTHOPHYLL] | 5
O=c1[nH]c(=O)c2ncn([C@@H]3O[C@H](CO)[C@@H](O)[C@H]3O)c2[nH]1 [XANTHOSINE] | < 1
CC1=C(/C=C/C(C)=C/C=C/C(C)=C/C=C/C=C(C)/C=C/C=C(C)/C=C/C2=C(C)C[C@@H](O)CC2(C)C)C(C)(C)C[C@H](O)C1 [ZEAXANTHIN] | 2.1
COc1cc(C(O)C(=O)O)ccc1O (stereo not drawn) [[…] ACID] | 5.6
O=C1O/C(=C\c2ccc(O)cc2)C(O)=C1c1ccc(O)cc1 [[…] B1] | < 1
O=C(Nc1ccccc1C(=O)O)c1ccccc1 [[…] B] | 1.9
CCCCCCCCCCCCCCCCCCCC(=O)O [[…]] | < 1
C[C@@H]1Cc2c(Cl)cc(C(=O)N[C@@H](Cc3ccccc3)C(=O)O)c(O)c2C(=O)O1 [[…]] | 1.6
Cc1cc(O)cc(O)c1C(=O)O [[…]] | < 1
Cc1ncc(CO)c(CO)c1O [[…]] | < 1
O=C1/C(=C\c2ccc(O)c(O)c2)Oc2c1ccc(O[C@@H]1O[C@H](CO)[C@@H](O)[C@H](O)[C@H]1O)c2O [[…]] | 1
Oc1cc(O)cc(/C=C/c2ccc(O)c(O)c2)c1 [[…]] | 1
[O-][n+]1ccccc1SSc1cccc[n+]1[O-] [[…]] | < 1

Same assay, conditions: PAMPA, PAMPA-BBB Pe, Table S2: compounds exhibiting moderate to high PAMPA-BBB permeability

SMILES | Papp [×10⁻⁶ cm/s]
COc1cc2c(c(OC)c1OC)-c1c(cc(OC)c(OC)c1OC)C[C@H](C)[C@H](C)C2 [S[…]] | 171
COC(=O)C1=CO[C@@H](C)[C@@H]2CN3CCc4c([nH]c5ccccc45)[C@@H]3C[C@H]12 [TETRAHYDROALSTONINE] | > 530
Cc1ccc(C(C)C)c(O)c1 [THYMOL] | 168
O=C(/C=C/c1ccc(O)cc1)c1ccc(O)cc1O [TRIHYDROXYCHALCONE] | 169
CC1=CCCC(C)(C)C12CCC(C)O2 (stereo not drawn) [T[…]] | 141
COc1ccc(C(=O)O[C@H]2CC[C@@]3(C)[C@@H]4CC[C@H]5[C@]6(O)C[C@H](O)[C@@]7(O)[C@@H](CN8C[C@@H](C)CC[C@H]8[C@@]7(C)O)[C@]6(O)C[C@@]53O[C@]24O)cc1OC [VERATRIDINE] | 17
CCC12C=CCN3CC[C@@]4(c5ccc(OC)cc5N(C)[C@H]4[C@@](O)(C(=O)OC)[C@@H]1OC(C)=O)[C@@H]32 (stereo partly drawn) [VINDOLINE] | 92
O=c1c2ccccc2oc2ccccc12 [XANTHONE] | 173
COc1cc(O)c(C(C)=O)c(OC)c1 [XANTHOXYLINE] | 149
CC1=C[C@H](O)CC(C)(C)[C@H]1/C=C/C(C)=C/C=C/C(C)=C/C=C/C=C(C)/C=C/C=C(C)/C=C/C1=C(C)C[C@@H](O)CC1(C)C [XANTOFYL] | 28
COc1ccc(/C=C/c2cc(OC)cc(=O)o2)cc1 [YANGONIN] | 156
COc1cc(CCC(C)=O)ccc1O [ZINGERONE] | 23
CC(C)[C@H]1C(=O)N[C@H](CO)Cc2c[nH]c3cccc(c23)N1C [[…]] | 47
CN1CC[C@]23c4ccccc4N[C@H]1[C@]21CCN(C)[C@H]3Nc2ccccc21 [[…]] | 23
C[C@H]1COC2=C1C(=O)C(=O)c1c2ccc2c1CCCC2(C)C [[…]] | 12
O=C1c2ccccc2-n2c1nc1ccccc1c2=O [[…]] | 141
